Source: US11547681B2, “N-acylethanolamide derivatives and uses thereof” (ELIEM THERAPEUTICS, INC., priority 2016, dated 2023)

Experiments:
in vitro [1] = conditions: for Measured concentration of analyte PEA, 0 min / Measured concentration of analyte PEA, 10 min / Measured concentration of analyte PEA, 20 min / Measured concentration of analyte PEA, 30 min / Measured concentration of analyte PEA, 60 min / % Remaining of Initial, 0 min / % Remaining of Initial, 10 min / % Remaining of Initial, 20 min / % Remaining of Initial, 30 min / % Remaining of Initial, 60 min: 1 μM; for % Remaining of Initial, 0 min / % Remaining of Initial, 10 min / % Remaining of Initial, 20 min / % Remaining of Initial, 30 min / % Remaining of Initial, 60 min / microsomal CLint at 1 μM / half-life at 1 μM: microsomes; for % Remaining of Initial, 0 min: 0 h; for % Remaining of Initial, 30 min: 0.5 h; for % Remaining of Initial, 60 min: 1 h
Description: The reaction mixture, minus cofactors, was prepared as described below. The test article was added into the reaction mixture at a final concentration of 1 μM. […] An aliquot of the reaction mixture (without cofactor) was equilibrated in a shaking water bath at 37° C. for 3 minutes. The reaction was initiated by the addition of cofactor, and the mixture was incubated in a shaking water bath at 37° C. Aliquots (100 μL) were withdrawn at 0, 10, 20, 30, and 60 minutes. All samples were immediately combined with 400 μL of ice-cold 50/50 acetonitrile/H2O containing 0.1% formic acid and internal standard to terminate the reaction. The samples were then mixed and centrifuged to precipitate proteins. Calibration standards were prepared in matched matrix. All samples and standards were assayed by LC-MS/MS using electrospray ionization for both the dosed prodrug I-9 and the expected drug (PEA). Analytical conditions are outlined in Appendix 4-1. The test article concentration at each time point was compared to the test article concentration at time 0 to determine the percent remaining at each time point. Half-lives were calculated using GraphPad software, fitting to a single-phase exponential decay equation.
(§1) Reaction mixture, minus cofactors, was prepared as described below. Test article was added into the reaction mixture at a final concentration of 1 μM. […] An aliquot of the reaction mixture (without cofactor) was equilibrated in a shaking water bath at 37° C. for 3 minutes. The reaction was initiated by the addition of cofactor, and the mixture was incubated in a shaking water bath at 37° C. Aliquots (100 μL) were withdrawn at 0, 10, 20, 30, and 60 minutes. Test article samples were immediately combined with 300 μL of ice-cold acetonitrile containing 1% formic acid. Control samples were immediately combined with 400 μL of ice-cold 50/50 acetonitrile (ACN)/dH2O containing 0.1% formic acid and internal standard to terminate the reaction. Samples were then mixed and centrifuged to precipitate proteins. Calibration standards were prepared in matched matrix. Samples and standards were assayed by LC-MS/MS using electrospray ionization for both dosed prodrug and expected drug (PEA). Analytical conditions are outlined in Appendix 8-1. Test article concentration at each time point was compared to test article concentration at time 0 to determine the percent remaining at each time point. Half-lives were calculated using GraphPad software, fitting to a single-phase exponential decay equation.
(§2) Reaction mixture, minus cofactors, was prepared as described below. Test article was added into the reaction mixture at a final concentration of 1 μM. […] An aliquot of the reaction mixture (without cofactor) was equilibrated in a shaking water bath at 37° C. for 5 minutes. Reaction was initiated by the addition of cofactor, and the mixture was incubated in a shaking water bath at 37° C. Aliquots (100 μL) were withdrawn at 0, 10, 20, 30, and 60 minutes. Test article samples were immediately combined with 300 μL of ice-cold acetonitrile containing 1% formic acid. Control samples were immediately combined with 400 μL of ice-cold 50/50 acetonitrile (ACN)/dH2O containing 0.1% formic acid and internal standard to terminate the reaction. Samples were then mixed and centrifuged to precipitate proteins. Calibration standards were prepared in matched matrix. Samples and standards were assayed by LC-MS/MS using electrospray ionization for both the dosed prodrug and the expected drug (PEA). Analytical conditions are outlined in Appendix 10-1. Test article concentration at each time point was compared to the test article concentration at time 0 to determine the percent remaining at each time point. Half-lives were calculated using GraphPad software, fitting to a single-phase exponential decay equation.
Reaction mixture, minus cofactors, was prepared as described below. Test article was added into the reaction mixture at a final concentration of 1 μM.

in vitro [2] = conditions: male; for Measured concentration of analyte PEA, 0 min / Measured concentration of analyte PEA, 10 min / Measured concentration of analyte PEA, 20 min / Measured concentration of analyte PEA, 30 min / Measured concentration of analyte PEA, 60 min / % Remaining of Initial, 0 min / % Remaining of Initial, 10 min / % Remaining of Initial, 20 min / % Remaining of Initial, 30 min / % Remaining of Initial, 60 min: 1 μM; for % Remaining of Initial, 0 min / % Remaining of Initial, 10 min / % Remaining of Initial, 20 min / % Remaining of Initial, 30 min / % Remaining of Initial, 60 min / microsomal CLint at 1 μM / half-life at 1 μM: microsomes; for % Remaining of Initial, 0 min: 0 h; for % Remaining of Initial, 30 min: 0.5 h; for % Remaining of Initial, 60 min: 1 h
Description: as §1, §2
as §1, with “minutes. Reaction” for “minutes. The reaction”, “300 μL,” for “300 μL”, “Appendix 13-1.” for “Appendix 8-1.”
Reaction mixture, minus cofactors, was prepared as described below.

SMILES: CCCCCCCCCCCCCCCC(=O)NCCOC(=O)CCC(=O)OC[C@H]1O[C@@](CO)(O[C@H]2O[C@H](CO)[C@@H](O)[C@H](O)[C@H]2O)[C@@H](O)[C@@H]1O [Compound I-7]
- Measured concentration of analyte PEA, 0 min (in vitro [1]; both, human): 0.22 µM
- Measured concentration of analyte PEA, 10 min (in vitro [1]; both, human): 0.39 µM
- Measured concentration of analyte PEA, 20 min (in vitro [1]; both, human): 0.28 µM
- Measured concentration of analyte PEA, 30 min (in vitro [1]; both, human): 0.22 µM
- Measured concentration of analyte PEA, 60 min (in vitro [1]; both, human): 0.080 µM
- % Remaining of Initial, 0 min (in vitro [1]; both, human): 100%
- % Remaining of Initial, 10 min (in vitro [1]; both, human): 4.6%
- % Remaining of Initial, 20 min (in vitro [1]; both, human): 1.3%
- % Remaining of Initial, 30 min (in vitro [1]; both, human): <1.0%
- % Remaining of Initial, 60 min (in vitro [1]; both, human): <1.0%
- microsomal CLint at 1 μM (in vitro [1]; both, human): 612 µL/min/mg
- half-life at 1 μM (in vitro [1]; both, human): 2.3 min
- Measured concentration of analyte PEA, 0 min (in vitro [1]; male, Sprague-Dawley, rat): 0.054 µM
- Measured concentration of analyte PEA, 10 min (in vitro [1]; male, Sprague-Dawley, rat): 0.14 µM
- Measured concentration of analyte PEA, 20 min (in vitro [1]; male, Sprague-Dawley, rat): 0.087 µM
- Measured concentration of analyte PEA, 30 min (in vitro [1]; male, Sprague-Dawley, rat): 0.045 µM
- Measured concentration of analyte PEA, 60 min (in vitro [1]; male, Sprague-Dawley, rat): 0.0085 µM
- % Remaining of Initial, 0 min (in vitro [1]; male, Sprague-Dawley, rat): 100%
- % Remaining of Initial, 10 min (in vitro [1]; male, Sprague-Dawley, rat): 45%
- % Remaining of Initial, 20 min (in vitro [1]; male, Sprague-Dawley, rat): 17%
- % Remaining of Initial, 30 min (in vitro [1]; male, Sprague-Dawley, rat): 11%
- % Remaining of Initial, 60 min (in vitro [1]; male, Sprague-Dawley, rat): 2.1%
- microsomal CLint at 1 μM (in vitro [1]; male, Sprague-Dawley, rat): 164 µL/min/mg
- half-life at 1 μM (in vitro [1]; male, Sprague-Dawley, rat): 8.5 min
- Measured concentration of analyte PEA, 0 min (in vitro [2]; Beagle, dog): 0.59 µM
- Measured concentration of analyte PEA, 10 min (in vitro [2]; Beagle, dog): 0.50 µM
- Measured concentration of analyte PEA, 20 min (in vitro [2]; Beagle, dog): 0.47 µM
- Measured concentration of analyte PEA, 30 min (in vitro [2]; Beagle, dog): 0.38 µM
- Measured concentration of analyte PEA, 60 min (in vitro [2]; Beagle, dog): 0.20 µM
- % Remaining of Initial, 0 min (in vitro [2]; Beagle, dog): 100%
- % Remaining of Initial, 10 min (in vitro [2]; Beagle, dog): 1.6%
- % Remaining of Initial, 20 min (in vitro [2]; Beagle, dog): 1.4%
- % Remaining of Initial, 30 min (in vitro [2]; Beagle, dog): 1.3%
- % Remaining of Initial, 60 min (in vitro [2]; Beagle, dog): <1.0%
- microsomal CLint at 1 μM (in vitro [2]; Beagle, dog): 823 µL/min/mg
- half-life at 1 μM (in vitro [2]; Beagle, dog): 1.7 min
- Measured concentration of analyte PEA, 0 min (in vitro [2]; CD-1, mouse): 0.28 µM
- Measured concentration of analyte PEA, 10 min (in vitro [2]; CD-1, mouse): 0.29 µM
- Measured concentration of analyte PEA, 20 min (in vitro [2]; CD-1, mouse): 0.18 µM
- Measured concentration of analyte PEA, 30 min (in vitro [2]; CD-1, mouse): 0.11 µM
- Measured concentration of analyte PEA, 60 min (in vitro [2]; CD-1, mouse): 0.034 µM
- % Remaining of Initial, 0 min (in vitro [2]; CD-1, mouse): 100%
- % Remaining of Initial, 10 min (in vitro [2]; CD-1, mouse): 1.7%
- % Remaining of Initial, 20 min (in vitro [2]; CD-1, mouse): 1.2%
- % Remaining of Initial, 30 min (in vitro [2]; CD-1, mouse): <1.0%
- % Remaining of Initial, 60 min (in vitro [2]; CD-1, mouse): <1.0%
- microsomal CLint at 1 μM (in vitro [2]; CD-1, mouse): 814 µL/min/mg
- half-life at 1 μM (in vitro [2]; CD-1, mouse): 1.7 min
